{"source": "patent US12371472B2", "about": "“Multimeric IL-15 soluble fusion molecules and methods of making and using same” (Altor BioScience, LLC., priority 2010, dated 2025)", "key": {"[1]": {"target": "TNF-α (Homo sapiens, UniProt P01375)", "sequence (P01375 77-233 limits assumed)": "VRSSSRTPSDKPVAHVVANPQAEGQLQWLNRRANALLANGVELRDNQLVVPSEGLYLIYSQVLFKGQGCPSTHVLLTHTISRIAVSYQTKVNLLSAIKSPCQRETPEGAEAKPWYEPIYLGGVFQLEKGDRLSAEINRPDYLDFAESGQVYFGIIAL", "conditions": "cited from earlier work"}, "[2]": {"system": "32Dβ cells", "conditions": "as disclosed in WO2008143794; cited from earlier work"}, "[3]": {"system": "p53 (aa264-272)/HLA-A2.1", "experiment": "Flow cytometry staining of p53 (aa264-272) peptide-loaded HLA-A2-positive T2 cells", "type": "binding, human", "conditions": "320 nM dimeric complex; vs c264scTCR/huIL15+c264scTCR/huIL15RαSushi complex", "procedure": "The fusion protein complexes comprising IL-15 variants as described in the table immediately above were characterized for their ability to bind the TCR-specific antigen, p53 (aa264-272)/HLA-A2.1. To generate cells presenting p53 (aa264-272)/HLA-A2.1, HLA-A2.1-positive T2 cells (2×10^6/mL) were loaded with 20 μM p53 (aa264-272) peptide at 37° C. in the presence of 1×PLE (Altor Bioscience) for 2-3 hrs. T2 cells that were not incubated with peptide and 321313 cells expressing IL-2/15Rβγc serve as controls. […] These complexes were generated by incubating 160 nM of purified c264scTCRhuIL15 fusion protein and 160 nM of purified c264scTCRhuIL15Rα Sushi fusion protein at 4 C for 3 hours. Following staining, cells were washed once with washing buffer (PBS containing 0.5% BSA and 0.05% sodium azide) and stained with 0.5 μg of biotinylated mouse monoclonal anti-human TCR Cβ antibody (BF1) in 100 μL of washing buffer for 30 min at 4 C. Cells were washed once and stained with 0.5 μg of R-Phycoerythrin conjugated streptavidin in 100 μL of washing buffer for 30 min at 4 C. […]\nFor the OT1scTCR fusion protein complexes, murine lymphoma EL4 cells were pulsed with OVA peptide at 100 μg/ml and PLE at 37° C. for 6 h. […] The samples were washed two times and analyzed on a FACScan flow cytometer using CellQuest software (BD Biosciences, San Jose, CA). […]"}, "[4]": {"target": "T1, IL-15Rβγc receptors (UniProt P14784+P34902)", "T1 construct": "expressed in transfected cells; host or cells: 32Dβ cells", "T1 sequence (P14784 27-551)": "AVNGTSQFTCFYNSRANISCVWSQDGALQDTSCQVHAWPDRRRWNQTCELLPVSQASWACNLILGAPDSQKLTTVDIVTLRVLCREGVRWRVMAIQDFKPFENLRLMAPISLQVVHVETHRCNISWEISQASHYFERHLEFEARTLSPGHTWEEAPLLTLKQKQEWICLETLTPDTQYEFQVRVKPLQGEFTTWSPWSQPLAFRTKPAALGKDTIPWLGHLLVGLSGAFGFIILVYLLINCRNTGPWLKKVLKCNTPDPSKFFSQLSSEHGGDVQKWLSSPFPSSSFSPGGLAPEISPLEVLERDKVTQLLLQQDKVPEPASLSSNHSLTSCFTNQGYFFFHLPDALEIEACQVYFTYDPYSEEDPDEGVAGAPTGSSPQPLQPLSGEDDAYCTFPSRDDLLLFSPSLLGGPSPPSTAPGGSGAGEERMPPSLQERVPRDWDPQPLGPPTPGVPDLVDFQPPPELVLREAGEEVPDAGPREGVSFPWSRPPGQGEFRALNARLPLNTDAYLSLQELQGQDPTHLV", "T1 sequence (P34902 23-369)": "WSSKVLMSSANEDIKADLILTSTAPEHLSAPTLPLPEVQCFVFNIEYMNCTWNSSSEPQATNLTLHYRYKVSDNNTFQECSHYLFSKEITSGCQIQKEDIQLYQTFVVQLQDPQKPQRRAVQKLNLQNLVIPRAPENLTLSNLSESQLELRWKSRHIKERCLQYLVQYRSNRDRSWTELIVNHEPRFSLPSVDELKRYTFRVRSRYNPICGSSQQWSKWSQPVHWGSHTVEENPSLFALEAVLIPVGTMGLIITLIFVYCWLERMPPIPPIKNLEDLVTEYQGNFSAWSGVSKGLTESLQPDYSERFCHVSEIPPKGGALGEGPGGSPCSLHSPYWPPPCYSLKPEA", "experiment": "IL-15Rβγc receptor binding of IL-15 variants and fusion complexes on 32Dβ cells (flow cytometry)", "conditions": "320 nM fusion protein complex", "procedure": "The fusion protein complexes comprising IL-15 variants as described in the table immediately above were characterized for their ability to bind the TCR-specific antigen, p53 (aa264-272)/HLA-A2.1. To generate cells presenting p53 (aa264-272)/HLA-A2.1, HLA-A2.1-positive T2 cells (2×10^6/mL) were loaded with 20 μM p53 (aa264-272) peptide at 37° C. in the presence of 1×PLE (Altor Bioscience) for 2-3 hrs. T2 cells that were not incubated with peptide and 321313 cells expressing IL-2/15Rβγc serve as controls. […] These complexes were generated by incubating 160 nM of purified c264scTCRhuIL15 fusion protein and 160 nM of purified c264scTCRhuIL15Rα Sushi fusion protein at 4 C for 3 hours. Following staining, cells were washed once with washing buffer (PBS containing 0.5% BSA and 0.05% sodium azide) and stained with 0.5 μg of biotinylated mouse monoclonal anti-human TCR Cβ antibody (BF1) in 100 μL of washing buffer for 30 min at 4 C. Cells were washed once and stained with 0.5 μg of R-Phycoerythrin conjugated streptavidin in 100 μL of washing buffer for 30 min at 4 C. Cells were washed and resuspended for analysis by flow cytometry.\nThe binding of the proteins was in turn detected with biotinylated (BF1) 8A3.31 mAb for 15 min and SA-PE (5 μg/ml each) for 15 min. The stained cells were analyzed by flow cytometry as described above."}, "[5]": {"target": "IL-15Rα", "sequence (Q13261 31-95 limits assumed)": "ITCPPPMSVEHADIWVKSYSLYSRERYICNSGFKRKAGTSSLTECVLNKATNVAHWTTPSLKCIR", "conditions": "cited from earlier work"}, "[6]": {"system": "NK cells and CD8 T-cells", "experiment": "Immunostimulatory activity in C57BL/6 mice (NK cells, CD8 T cells, WBC, spleen weight)", "type": "in vivo", "procedure": "Changes in the percentage of peripheral blood mononuclear cells (PBMC) CD8^+ and NKp46^+ cells were assessed flow cytometry as shown in FIG. 48B. PBMCs were also used to assess NK cell activity based on lysis of NK-sensitive Yac-1 target cells in a calcein release assay as shown in FIG. 48C.\nOn study day 4, the percentage of PBMC CD8^+ and NKp46^+ cells were assessed by flow cytometry (FIG. 49A). Nude mice were treated i.v. with IL15N72D/IL15Rα-Fc (0.2 mg/kg) or T2M2 (2 mg/kg) of study day 1. On day 4 and 7 post treatment, the percentage of PBMC NKp46^+ cells was assessed by flow cytometry (FIG. 49B). […]\nMice were i.v. injected on day 1 and 4 with the fusion proteins at an amount equivalent to a 2.5 μg dose of IL-15. On day 8, blood cells and splenocytes were collected, stained for CD8 T-cells and NK cells, and analyzed by flow cytometry. […]\nC57BL/6 mice (male, 6 wks of age, Harlan, Indianapolis, IN) were injected intravenously with a single dose of IL-15N72D:IL-15RαSu/Fc fusion complex (Alt-803) at 1 mg/kg or human IL-15 wt at 0.28 mg/kg (molar equivalent dose), respectively, or PBS as a negative control. […] The stained cells were analyzed on a FACScan flow cytometer (BD Bioscience, San Jose, CA). […]"}, "[7]": {"system": "human p53+ HLA-A2+ A375 melanoma cell line", "conditions": "vs PBS; for effect on s.c. A375 tumor xenografts: Example 17, i.v., equivalent molar doses", "method": "A375 human melanoma tumor cells (1×10^6) were injected s.c. into nude mice (5-6/group). […] The mice were treated three times a week for three weeks starting on study day 11 (FIG. 50A). A375-tumor bearing nude mice were also treated i.v. with 4 mg/kg T2M as in FIG. 50A (FIG. 50B). A375 tumor bearing nude mice were i.v. with equivalent molar doses of IL-15 (0.2 mg/kg), T2M2 (2 mg/kg) or PBS (FIG. 50C). Tumors were measured every other day and tumor volumes (mean±SEM) were plotted.\nTo determine the therapeutic effects of the T2 protein, we examined antitumor activity in a primary tumor growth model with the human p53+ HLA-A2+A375 melanoma cell line in nude mice. Tumor cells were injected subcutaneously into nude mice and tumors were allowed to grow to 100 mm 3 before treatment began. […] The mice were treated every other day for one week (3 injections) followed by a 9 day rest period and then every other day for an additional week (3 injections). During the study, tumor growth was measured and the tumor volumes were plotted (FIG. 27).\nThe antitumor activity of these complexes was further examined in the subcutaneous A375 xenograft model in nude mice."}, "[8]": {"system": "5T33P myeloma cells", "experiment": "5T33P murine myeloma model", "conditions": "single i.v. ALT-803 0.2 mg/kg or molar equivalent IL-15, well-established tumors, four days after treatment", "method": "BM cells were collected 4 days after study drug treatments. […] The plotted values represent the mean±SE; P values are presented. […] Female C57BL/6NHsd mice (n=5/group) were injected i.v. with murine 5T33P myeloma cells (1×10^7 cells/mouse) on day 0. […] Control mice were treated with PBS on day 4. Survival (or morbidity due to hind leg paralysis) was monitored as a study endpoint. […] Five treatment-naïve mice were also administered 5T33P cells (1×10^7) on day 93 as a control for tumor development.\nTumor-bearing mice were monitored daily for hind leg paralysis, signs of overt disease progression and mortality.\nLevels of BM myeloma cells and hind leg paralysis or survival were assessed as study endpoints.\nControl mice received PBS (0.2 mL)."}, "[9]": {"system": "murine EG7-OVA lymphoma", "experiment": "EG7-OVA lymphoma primary subcutaneous tumor growth in C57BL/6 mice (Example 27)", "type": "in vivo", "conditions": "ALT-803 0.415 or 0.83 mg/kg, rhIL-15 0.06 mg/kg, four i.v. injections", "procedure": "To evaluate the effect of ALT-803 when administered via intravenous (i.v.) injection in multi-dose regimen on primary subcutaneous tumor growth of murine EG7-OVA lymphoma in C57BL/6 mice the following studies were carried out. Four treatment groups, ALT-803 (0.415 and 0.83 mg/kg), recombinant human interleukine-15 (rhIL-15, 0.06 mg/kg) and PBS (control), were examined in the study (Table 1). Female C57BL/6 mice (8-10 weeks old) were injected subcutaneously (s.c.) with EG7-OVA (1×10^6 cells in 100 μl PBS) on study day (SD) 0. PBS (n=5), rhIL-15 (n=5) or ALT-803 (n=5) were administered i.v. on SD 1, 4, 8, and 11 post EG7-OVA tumor cell injection. Tumors (width and length) were measured over the course of study. Tumor volume was the primary end point of the study.\nFemale C57BL/6 mice were injected s.c. with EG7-OVA (1×10^6 cells/mouse) on study day 0. […] During the study, mouse body weight and tumor width and length were measured and recorded.\nThe length (mm) and width (mm) of the tumors were measured and recorded. […]\nData were analyzed by ANOVA using GraphPad Prism Version 4.03. […] Tumor growth inhibition (TGI) was calculated using the following equation: TGI (%)=(Vcontrol−Vtreated)/Vcontrol×100, where Vcontrol is the mean tumor volume of mice from the PBS or rhIL-15 treatment control, and Vtreated is the mean tumor volume of mice receiving test article treatment."}, "[10]": {"system": "32Dβ cells", "experiment": "32Dβ cell proliferation assay (WST-1), IL-15 biological activity", "type": "cell-based", "conditions": "hIL-15 wild-type domain, 48 h; read-out: half-maximal stimulation (EC50)", "procedure": "The biological activity of the IL-15 domain of the T2 molecules was further characterized in proliferation assays using the cytokine-dependent 32Dβ cell line. […] Cell proliferation reagent WST-1 (Roche Applied Science) was added during the last 4 h of cell growth according to the manufacturer's procedures. Conversion of WST-1 to the colored formazan dye by metabolically active cells was determined through absorbance measurements at 440 nm.\nCell proliferation assays—Cell proliferation was measured as previously described (25). Briefly, 32Dβ cells (1×10^5 cells/well) were incubated with increasing concentrations of scTCR/hIL-15 or scTCR/hIL-15 muteins in the presence or absence of an equal molar concentration of scTCR/hIL-15RαSu for 48 h at 37° C. Cell proliferation reagent WST-1 (Roche Applied Science, Indianapolis, IN) was added during the last 4 h of cell growth according to the manufacturer's procedures. Conversion of WST-1 to the colored formazan dye by metabolically active cells was determined through absorbance measurements at 440 nm. The EC50 was determined with the dose-response curve generated from the experimental data by nonlinear regression variable slope curve-fitting with Prizm4 software (GraphPad Software, La Jolla, CA). […]"}}, "note": "Where two headings read alike, the source gives them in different places.", "data": [{"substance": "etanercept", "values": [{"measurement": "potency at inhibiting TNF-α activity relative to monomeric sTNFR", "setting": "[1]", "value": "up to 1,000 times"}, {"measurement": "serum half-life relative to the monomeric form", "setting": "[1]", "value": "five-fold longer serum half-life"}]}, {"substance": "Mutant 6: human IL-15 variant, N72D", "values": [{"measurement": "increase of IL-15 biological activity by the substitution", "setting": "[2]", "value": "5 to 10", "unit": "fold"}]}, {"substance": "c264scTCR/huIL15D8N+c264scTCR/huIL15RαSushi complex: dimeric fusion protein complex with IL-15 D8N variant", "values": [{"measurement": "specific staining of p53 peptide-loaded T2 cells", "setting": "[3]", "value": "equivalent activity"}, {"measurement": "binding to the IL-15Rβγc receptors present on the 32Dβ cells", "setting": "[4]", "value": "do not show binding activity"}]}, {"substance": "IL-15: recombinant human wild-type IL-15", "values": [{"measurement": "Kd", "setting": "[5]; in solution, Bouchaud et al. 2008, read-out: Kd of complex of soluble IL-15RαSu and IL-15", "value": 0.1, "unit": "nM"}, {"measurement": "Kd", "setting": "[5]; read-out: Equilibrium dissociation constant (KD) of hIL-15 with hIL-15Rα", "value": "~0.01", "unit": "nM"}, {"measurement": "Kd", "setting": "[5]; read-out: affinity of IL-15Rα for hIL-15", "value": 0.038, "unit": "nM"}, {"measurement": "WBC counts, spleen weight and blood NK and CD8+ T cell populations", "setting": "[6]; Example 17, single i.v. dose at molar equivalent of IL-15 1 mg/kg, day 4", "value": "little or no effect"}, {"measurement": "expansion of NK and CD8+ T cells in blood and spleen", "setting": "[6]; Example 22, single i.v. dose, complex 1 mg/kg or IL-15 wt 0.28 mg/kg, four days", "value": "no significant effect"}, {"measurement": "effect on s.c. A375 tumor xenografts", "setting": "[7]", "value": "no effect"}, {"measurement": "reduction in BM myeloma cells compared to PBS controls", "setting": "[8]", "value": 53, "unit": "%"}, {"measurement": "EG7-OVA tumor growth vs PBS", "setting": "[9]", "value": "significantly inhibited"}]}, {"substance": "c264scTCR/huIL15D8A+c264scTCR/huIL15Rα Sushi complex: dimeric fusion protein complex with IL-15 D8A variant", "values": [{"measurement": "specific staining of p53 peptide-loaded T2 cells", "setting": "[3]", "value": "equivalent activity"}, {"measurement": "binding to the IL-15Rβγc receptors present on the 32Dβ cells", "setting": "[4]", "value": "do not show binding activity"}]}, {"substance": "c264scTCR/huIL15: c264scTCR fused to the N-terminus of hIL-15", "values": [{"measurement": "EC50", "setting": "[10]", "value": "~0.3", "unit": "nM"}, {"measurement": "effect on s.c. A375 tumor xenografts", "setting": "[7]", "value": "no effect"}]}, {"substance": "c264scTCR/huIgG1: p53 (aa 264-272) single-chain TCR fused to human IgG1", "values": [{"measurement": "A375 tumor growth", "setting": "[7]; Example 10, i.v. 1.6 mg/kg T2 or c264scTCR/huIL2, 3 mg/kg 264scTCR/huIgG1", "value": "inhibited"}]}]}
